Test system: fGPR92 receptor
Test: fGPR92 activation in CHO-K1 cells, calcium sensitive fluorescent dye (FLIPR Tetra), agonist mode
Assay type: cell-based, cat
Details: CHO-K1 cells stably expressing fGPR92
Description: The present example describes the activation of the cat GPR92 receptor (fGPR92) by various compounds and compositions in vitro. Samples that can function as GPR92 agonists were identified by in vitro functional characterization. The effectiveness of a sample in activating the fGPR92 receptor was evaluated. Methods: CHO-Kl cells stably expressing fGPR92 were used to screen 118 test samples to identify samples that can activate the fGPR92 receptor. Activation of the fGPR92 receptor was detected by changes in intracellular calcium levels using a calcium sensitive fluorescent dye. Cells without fGPR92 receptor expression (mock cells) were used as a control. A FLIPR® Tetra system was used for data capture. Each sample was first tested for its ability to activate fGPR92 at three different dose levels in both agonist mode and positive allosteric modulator mode. Active samples were further tested at eight different dose levels in both agonist mode and positive allosteric modulator mode. Peptone from Sigma-Aldrich (product number: P5905; CAS number 73049-73-7) was used in this Example. Dose response curves were then generated for each sample. Menthol and cinnamaldehyde were used as negative controls. In the agonist mode (AGO), 14:0 LPA at 10 μM (EC100) was used as a positive control and the assay buffer was used as a negative control. […]

Compound	activation of fGPR92 receptor
CC(C)[C@@H]1CC[C@@H](C)C[C@H]1O [Menthol, L-menthol]	did not activate fGPR92 receptor
O=C/C=C/c1ccccc1 [cinnamaldehyde, cinnamic aldehyde]	did not activate fGPR92 receptor
